Results as given in the supplement of paper PMC10331698.
± gives the standard deviation of the averaged measurements.

Legend:
Assay in all cases: LOEC (log10 uM (lowest observed effect concentration))
[1] = compound: O=C(O)C(F)(F)C(F)(F)C(F)(F)C(F)(F)C(F)(F)C(F)(F)C(F)(F)C(F)(F)Cl [9-Chloro-perfluorononanoic acid]
Procedure: (§1)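 BioMAP Diversity Plus panel in human primary cell co-cultures, 4 concentrations in duplicate blinded samples. Responses are log10 fold change versus DMSO control, processed with tcpl v2.1.0. A hit is called when responses at any concentration exceed the cutoff (the larger of 3*bmad or log10(1.2)); the lowest observed effect concentration (modl_ga, log10 uM) is reported for hits.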

[2] = compound: O=C(O)C(F)(F)OC(F)(F)C(F)(F)OC(F)(F)C(F)(F)C(F)(F)C(F)(F)F [Perfluoro-3,6-dioxadecanoic acid]
Procedure: as §1

[3] = compound: C=CC(=O)OCCC(F)(F)C(F)(F)C(F)(F)C(F)(F)F [2-(Perfluorobutyl)ethyl acrylate]
Procedure: as §1

[4] = compound: CNS(=O)(=O)C(F)(F)C(F)(F)C(F)(F)C(F)(F)C(F)(F)C(F)(F)C(F)(F)C(F)(F)F [N-Methylperfluorooctanesulfonamide]
Procedure: as §1

Azathioprine = compound: Cn1cnc([N+](=O)[O-])c1Sc1ncnc2[nH]cnc12 [Azathioprine]
Procedure: as §1

[5] = compound: O=C(O)C(F)(F)C(F)(F)C(F)(F)C(F)(F)C(F)(F)C(F)(F)C(F)(F)C(F)(F)C(F)(F)C(F)(F)C(F)(F)C(F)(F)F [Perfluorotridecanoic acid]
Procedure: as §1

[6] = compound: O=S(=O)(O)C(F)(F)C(F)(F)C(F)(F)C(F)(F)C(F)(F)C(F)(F)C(F)(F)C(F)(F)F [Potassium perfluorooctanesulfonate]
Procedure: as §1

Perfluorooctanamidine = compound: N=C(N)C(F)(F)C(F)(F)C(F)(F)C(F)(F)C(F)(F)C(F)(F)C(F)(F)F [Perfluorooctanamidine]
Procedure: as §1

[7] = compound: O=C(O)C(F)(F)C(F)(F)C(F)(F)C(F)(F)C(F)(F)C(F)(F)C(F)(F)C(F)(F)C(F)(F)C(F)(F)C(F)(F)C(F)(F)C(F)(F)F [Perfluorotetradecanoic acid]
Procedure: as §1

[8] = compound: O=P(O)(O)CCC(F)(F)C(F)(F)C(F)(F)C(F)(F)C(F)(F)C(F)(F)C(F)(F)C(F)(F)F [((Perfluorooctyl)ethyl)phosphonic acid]
Procedure: as §1

[9] = compound: O=S(=O)(O)C(F)(F)C(F)(F)C(F)(F)C(F)(F)C(F)(F)C(F)(F)C(F)(F)C(F)(F)F [Perfluorooctanesulfonic acid]
Procedure: as §1

LPS PGE2 down
LOEC (log10 uM) [1]: 1.78
LOEC (log10 uM) [2]: 1.3

hDFCGF ICAM1 down
LOEC (log10 uM) [3]: 1.78
LOEC (log10 uM) [4]: 1.78
LOEC (log10 uM) [1]: 1.07 ± 0.32

BT sIgG down
LOEC (log10 uM) [3]: 1.78
LOEC (log10 uM) (Azathioprine): -0.0458

KF3CT IL1a down
LOEC (log10 uM) [5]: 1.22 ± 0.37
LOEC (log10 uM) [1]: 1.78

hDFCGF ITAC down
LOEC (log10 uM) [3]: 1.07 ± 0.32
LOEC (log10 uM) (Azathioprine): 0.977 ± 0.71
LOEC (log10 uM) [5]: 0.239 ± 0.34
LOEC (log10 uM) [1]: 0.573 ± 0.39
LOEC (log10 uM) [2]: 1.54 ± 0.34
LOEC (log10 uM) [6]: 1.78

BE3C tPA down
LOEC (log10 uM) (Azathioprine): 1.22 ± 0.37
LOEC (log10 uM) [1]: 1.78
LOEC (log10 uM) [2]: 1.78

BT Bcell Proliferation up
LOEC (log10 uM) [1]: 1.78

BF4T MMP9 down
LOEC (log10 uM) [1]: 1.78

CASM3C Proliferation down
LOEC (log10 uM) (Azathioprine): 1.48

4H Eotaxin3 down
LOEC (log10 uM) (Perfluorooctanamidine): 1.78
LOEC (log10 uM) [7]: 0.345 ± 0.71
LOEC (log10 uM) [8]: 1.78

SAg MCP1 down
LOEC (log10 uM) [3]: 1.78
LOEC (log10 uM) [1]: 1.78

BE3C IL1a down
LOEC (log10 uM) [1]: 1.54 ± 0.34
LOEC (log10 uM) [2]: 1.78
LOEC (log10 uM) [9]: 1.78

4H VCAM1 down
LOEC (log10 uM) (Azathioprine): 1.48
LOEC (log10 uM) (Perfluorooctanamidine): 1.78
LOEC (log10 uM) [7]: 0.0731 ± 0.32
LOEC (log10 uM) [5]: 0.716 ± 0.34
LOEC (log10 uM) [1]: 1.78

IMphg SRB down
LOEC (log10 uM) [1]: 1.78

CASM3C MIG down
LOEC (log10 uM) [3]: 1.78
LOEC (log10 uM) [4]: 1.07 ± 0.32

KF3CT PAI1 up
LOEC (log10 uM) [4]: 0.801 ± 0.71

KF3CT uPA down
LOEC (log10 uM) [1]: 1.78

hDFCGF MCSF down
LOEC (log10 uM) [3]: 1.3
LOEC (log10 uM) (Azathioprine): 1.48
LOEC (log10 uM) (Perfluorooctanamidine): 1.78
LOEC (log10 uM) [1]: 1.78
LOEC (log10 uM) [2]: 1.78
LOEC (log10 uM) [6]: 1.78

MyoF CollagenIII down
LOEC (log10 uM) [1]: 1.3
LOEC (log10 uM) [2]: 1.78

BF4T ICAM1 down
LOEC (log10 uM) [1]: 1.78

LPS CD40 down
LOEC (log10 uM) [3]: 1.78
LOEC (log10 uM) (Perfluorooctanamidine): 1.78
LOEC (log10 uM) [8]: 1.78

BE3C tPA up
LOEC (log10 uM) [8]: 1.3

IMphg MCSF down
LOEC (log10 uM) (Azathioprine): 1.48

BF4T SRB down
LOEC (log10 uM) [1]: 1.78

MyoF PAI1 down
LOEC (log10 uM) [1]: 1.78

SAg SRB down
LOEC (log10 uM) (Perfluorooctanamidine): 1.78
LOEC (log10 uM) [1]: 1.78
LOEC (log10 uM) [8]: 1.78

BE3C IL8 down
LOEC (log10 uM) [4]: 1.54 ± 0.34
LOEC (log10 uM) [1]: 1.54 ± 0.34
LOEC (log10 uM) [9]: 1.3

hDFCGF IP10 down
LOEC (log10 uM) [3]: 1.3
LOEC (log10 uM) (Azathioprine): 1.22 ± 0.37
LOEC (log10 uM) [5]: 0.239 ± 0.34
LOEC (log10 uM) [1]: 1.3
LOEC (log10 uM) [2]: 1.54 ± 0.34
LOEC (log10 uM) [9]: 1.3
LOEC (log10 uM) [6]: 1.07 ± 0.32

BF4T tPA down
LOEC (log10 uM) [1]: 1.3

SAg CD38 down
LOEC (log10 uM) [3]: 1.78
LOEC (log10 uM) [1]: 1.78

hDFCGF MMP1 down
LOEC (log10 uM) [1]: 0.845

BE3C uPA down
LOEC (log10 uM) [1]: 1.78
LOEC (log10 uM) [9]: 1.78

LPS TNFa down
LOEC (log10 uM) (Azathioprine): 1.48

KF3CT ICAM1 down
LOEC (log10 uM) [1]: 1.78

CASM3C SAA up
LOEC (log10 uM) [5]: 0.477 ± 0.68

IMphg CD40 down
LOEC (log10 uM) (Azathioprine): 1.48
LOEC (log10 uM) [5]: 1.48
LOEC (log10 uM) [1]: 1.78
LOEC (log10 uM) [2]: 1.78

BT xIL6 down
LOEC (log10 uM) [3]: 1.78
LOEC (log10 uM) (Azathioprine): 1.48

KF3CT TIMP2 down
LOEC (log10 uM) [1]: 1.78

hDFCGF CollagenIII down
LOEC (log10 uM) (Azathioprine): 0.977 ± 0.71
LOEC (log10 uM) (Perfluorooctanamidine): 1.3
LOEC (log10 uM) [5]: 0.477
LOEC (log10 uM) [1]: 1.3
LOEC (log10 uM) [2]: 1.78
LOEC (log10 uM) [8]: 1.3

3C IL8 down
LOEC (log10 uM) [5]: 1.22 ± 0.37

BE3C SRB down
LOEC (log10 uM) [1]: 1.54 ± 0.34
LOEC (log10 uM) [9]: 1.3
LOEC (log10 uM) [6]: 1.3

BE3C HLADR down
LOEC (log10 uM) [1]: 1.3
LOEC (log10 uM) [2]: 1.54 ± 0.34
LOEC (log10 uM) [9]: 1.3
LOEC (log10 uM) [6]: 1.3

BE3C ITAC up
LOEC (log10 uM) [2]: 0.845

BE3C ICAM1 down
LOEC (log10 uM) [1]: 1.78

BT xIL17F down
LOEC (log10 uM) [3]: 1.3
LOEC (log10 uM) (Azathioprine): 1.48

BF4T IL1a down
LOEC (log10 uM) [1]: 1.78

BE3C MMP1 up
LOEC (log10 uM) (Perfluorooctanamidine): 1.78
LOEC (log10 uM) [2]: 1.3
LOEC (log10 uM) [6]: 0.573 ± 0.39

CASM3C VCAM1 down
LOEC (log10 uM) [3]: 1.78
LOEC (log10 uM) [4]: 0.801 ± 0.71
LOEC (log10 uM) (Azathioprine): 1.48
LOEC (log10 uM) [5]: 0.954

hDFCGF EGFR down
LOEC (log10 uM) [2]: 1.78

IMphg MCP1 down
LOEC (log10 uM) [1]: 1.78

IMphg IL1a up
LOEC (log10 uM) [4]: 1.54 ± 0.34

BT Bcell Proliferation down
LOEC (log10 uM) [3]: 1.78
LOEC (log10 uM) (Azathioprine): 1.48
LOEC (log10 uM) (Perfluorooctanamidine): 1.78
LOEC (log10 uM) [8]: 1.78

LPS CD69 down
LOEC (log10 uM) (Perfluorooctanamidine): 1.78
LOEC (log10 uM) [1]: 1.78
LOEC (log10 uM) [2]: 1.78

BT xIL17A down
LOEC (log10 uM) [3]: 1.54 ± 0.34
LOEC (log10 uM) (Azathioprine): 1.48

SAg PBMCCytotoxicity down
LOEC (log10 uM) [3]: 1.78
LOEC (log10 uM) (Perfluorooctanamidine): 1.78

BE3C uPAR up
LOEC (log10 uM) [6]: 1.54 ± 0.34

SAg Proliferation down
LOEC (log10 uM) [3]: 1.54 ± 0.34
LOEC (log10 uM) (Azathioprine): 0.954
LOEC (log10 uM) (Perfluorooctanamidine): 1.78

KF3CT MCP1 down
LOEC (log10 uM) [1]: 1.78

BE3C EGFR down
LOEC (log10 uM) [1]: 1.3
LOEC (log10 uM) [2]: 1.78
LOEC (log10 uM) [9]: 1.3
LOEC (log10 uM) [6]: 1.3

MyoF SRB down
LOEC (log10 uM) [1]: 1.78
